Measured values from patent publication US6894063B2, “Substituted urea neuropeptide Y Y5 Receptor antagonists” (Schering Corporation, priority 2000, dated 2005).

System: D-Trp34-NPY stimulated food intake
Test: Screening for Y5 antagonist activity in vivo: D-Trp34-NPY stimulated food intake in rats
Set-up: species or system Long-Evans or Sprague-Dawley rats
Conditions: rat, oral doses 0.1, 0.3, 1 and 3 mg/kg one hour before icv D-Trp34-NPY; food consumption monitored at 60, 120 and 240 min
Procedure: Method for Screening Compound 14 of Example 14 for Y5 Antagonist Activity In Vivo
Adult male Long-Evans or Sprague-Dawley rats (200-250 g, Charles River, Mass.) were maintained in individual cages at 22° C. on a 12 hr light/12 hr dark cycle with lights on at 0400. Rats had free access to food (Teklad Lab Rodent Chow, Bartonville, Ill.) and water. All studies were conducted in an AAALAC accredited facility following protocols approved by the Animal Care and Use Committee of the Schering-Plough Research Institute. The procedures were performed in accordance with the principles and guidelines established by the NIH for the care and use of laboratory animals.
Rats were anesthetized by intramuscular injection of a mixture of ketamine and xylazine (100 and 10 mg/kg, respectively). A 22 gauge stainless steel cannula was stereotaxically implanted into the lateral ventricle using the following coordinates: 1 mm posterior to bregma, 1.5 mm lateral to midline, 3.6 mm ventral to dura. After a three week recovery period, all animals were tested for correct cannula placement by intracerebroventricular (icv) infusion of human NPY ([…]). […] Food consumption was monitored at 60, 120 and 240 min after icv infusion of peptides. Differences in food intake between groups were determined by analysis of variance followed by Dunnett's multiple comparison test.

CN(C(=O)Nc1ccc(-c2cc(F)cc(F)c2)cc1)C1CCN(c2nccs2)CC1 [Example 14]
ID50, inhibition of D-Trp34-NPY stimulated food intake: 0.5 mg/kg
